Data from patent US11826402B2, “Combination therapy involving antibodies against claudin 18.2 for treatment of metastatic pancreatic adenocarcinoma” (Astellas Pharma Inc., priority 2013, dated 2023).

Legend:
KCI-MOH = assay: IMAB362-mediated ADCC assay; assay type: cell-based, human; conditions: at least 2 donors
SW1990 = assay: IMAB362-mediated ADCC assay; assay type: cell-based, human; conditions: at least 2 donors
CFPAC1 = assay: IMAB362-mediated ADCC assay; assay type: cell-based, human; conditions: at least 2 donors
[1] = molecular target: first extracellular domain (ECD1) of CLDN18.2 (Homo sapiens, UniProt P56856); assay: Target binding of IMAB362 (background)
CLDN18.1 = CLDN18.1 (Homo sapiens, UniProt P56856); assay: Binding to other claudin family members (background)
KATO-III = assay: IMAB362-induced ADCC on gastric cancer cells, also after chemotherapy pretreatment; assay type: cell-based, human; conditions: KATO-III; up to 200 μg/ml, 24 hours, human PBMC E:T 40:1
Method: Peripheral blood mononuclear cells (PBMCs) including NK cells, monocytes, […] or other effector cells from healthy human donors were purified by Ficoll Hypaque density centrifugation. Washed effector cells were seeded in X-Vivo medium. Kato III cells which express CLDN18.2 endogenously and are of gastric origin were used as target cells in this setting. Target cells stably expressed luciferase, lucifer yellow, which is oxidized by viable cells only.

Panc01 = assay: IMAB362-mediated ADCC assay; assay type: cell-based, human; conditions: at least 2 donors
[2] = system: MiaPaCa-2-LVT, Suit2-LVT and CAPAN1-LVT; assay: IMAB362-mediated CDC assay, LVT cell lines; assay type: cell-based, human
Method: CDC was performed as follows.
CHO-K1 cells stably transfected with CLDN18.2 (p740) and luciferase were used as assay positive controls in each assay (FIG. 23A). […] This is most likely due to the fact that neoplastic cells over-express one or more membrane bound complement inhibitory proteins (e.g. CD46, CD55 and CD59) (Geis et al., Curr Cancer Drug Targets, 2010 10:922-931). However, if expression of these inhibitory proteins on tumor cells affect clinical outcome of an antibody therapy is still contradictory (Dzietczenia et al. Med. Oncol. 2010, 27:743-6; Weng and Levy at al., Blood 2001 98:1352-7). In addition to the endogenous cell lines, all the LVT cell lines were tested in CDC assays.

BxPC3-CLDN18 = assay: IMAB362 mediated apoptosis of gemcitabine treated pancreas tumor cells; assay type: cell-based, human; conditions: BxPC3-CLDN18, medium or 100 ng/ml gemcitabine, after 48 hours
Method: BxPC3-CLDN18 were cultivated in medium or medium+100 ng/ml gemcitabine. Apoptotic cell fraction of […] were shifted. Similar shifts were obtained by incubation of tumor cells with Camptotecin.
Following the indicated treatments, apoptosis was measured by annexin V binding (detection kit I) or by a DNA fragmentation assay (Apo-Direct) as recommended by the manufacturer (PharMingen, San Diego, Calif.). Briefly, cells floating in the supernatant were combined with the adherent fraction, which was trypsinized and then washed. An aliquot of 5 E+05 cells was incubated with annexin V-APC and PI for 15 min at room temperature in the dark. Cells were immediately analyzed by flow cytometry. Viable cells exclude both annexin V-APC and PI. Early apoptotic cells are annexin V-APC-positive and PI-negative, whereas cells that are no longer viable due to apoptotic or necrotic cell death are positively stained by both annexin V and PI. Percentage of stained cells in each quadrant was quantified using FlowJo software (BD Biosciences, Franklin Lakes, N.J.).
The apoptotic assay based on DNA fragmentation was performed as follows. Treated cells (adherent and floating) were fixed in 70% icecold EtOH overnight. […] Cells were rinsed, incubated in RNase A/propidium iodide in the dark for 30 min at room temperature to stain total DNA, then analyzed by flowvcytometry. […]

Panc02.03 = assay: IMAB362-mediated ADCC assay; assay type: cell-based, human; conditions: at least 2 donors

For “IMAB362: chimeric IgG1 antibody directed against CLDN18.2, developed by Ganymed Pharmaceuticals AG”, the “ADCC EC50” value (KCI-MOH) was “n.m”, the “ADCC EC50” value (SW1990) was “n.m” and the “ADCC Max. lysis” value (SW1990) was “n.m”. For the same substance, the “ADCC EC50” value (CFPAC1) was “n.m”, the “ADCC Max. lysis” value (CFPAC1) was 0-1.5% and the “recognition of ECD1 of CLDN18.2” value [1] was “high affinity and specificity”. For the same substance, the “binding to CLDN18.1 and other claudin family members” value (CLDN18.1) was “does not bind”, the “maximum lysis rates (ADCC)” value (KATO-III) was 80-100% and the “ADCC EC50” value (Panc01) was “n.m”. The “ADCC Max. lysis” value (Panc01) was 0-4.5%, the “CDC EC50” value ([2]; BxPC3 LVT) was “n.m” and the “CDC Max. lysis” value ([2]; BxPC3 LVT) was “n.m”. The “CDC EC50” value ([2]; CAPAN1-LVT) was 0.9701 µg/mL, the “CDC Max. lysis” value ([2]; CAPAN1-LVT) was 79.1% and the “CDC EC50” value ([2]; DANG-LVT) was “n.m”. The “CDC Max. lysis” value ([2]; DANG-LVT) was “n.m”, the “CDC EC50” value ([2]; HPAC-LVT) was “n.m” and the “CDC Max. lysis” value ([2]; HPAC-LVT) was “n.m”. The “CDC EC50” value ([2]; MiaPaCa2-LVT) was 0.34 µg/mL, the “CDC Max. lysis” value ([2]; MiaPaCa2-LVT) was 78.4% and the “CDC EC50” value ([2]; Patu8902-LVT) was 0.291 µg/mL. The “CDC Max. lysis” value ([2]; Patu8902-LVT) was 76.7%, the “CDC EC50” value ([2]; Suit2-LVT) was “n.m” and the “CDC Max. lysis” value ([2]; Suit2-LVT) was “n.m”. For the same substance, the “CDC EC50” value ([2]; YAPC-LVT) was “n.m”, the “CDC Max. lysis” value ([2]; YAPC-LVT) was “n.m” and the induction of apoptosis (BxPC3-CLDN18) was “Apoptosis induced by cross-linking”. For the same substance, the “ADCC EC50” value (Panc02.03) was “n.m” and the “ADCC Max. lysis” value (Panc02.03) was “n.m”.
